The nature of test [1]: Displacement of [3H]DTG from sigma 2 receptor in rat liver membrane. It is filed as cell membranes. (In a radioligand displacement assay an active substance lowers the binding of a labelled ligand.)
The species entered for another test is Rattus norvegicus. Kind of test: Selectivity ratio of Ki for rat liver sigma 2 receptor to Ki for rat liver sigma 1 receptor.
For test [2], the target named is Sigma non-opioid intracellular receptor 1 (Rattus norvegicus, UniProt Q9R0C9). The experiment in a line: Displacement of [3H](+)-pentazocine from sigma 1 receptor in rat liver membrane. It counts as cell membranes.
Chain of Sigma non-opioid intracellular receptor 1 (Q9R0C9 whole entry): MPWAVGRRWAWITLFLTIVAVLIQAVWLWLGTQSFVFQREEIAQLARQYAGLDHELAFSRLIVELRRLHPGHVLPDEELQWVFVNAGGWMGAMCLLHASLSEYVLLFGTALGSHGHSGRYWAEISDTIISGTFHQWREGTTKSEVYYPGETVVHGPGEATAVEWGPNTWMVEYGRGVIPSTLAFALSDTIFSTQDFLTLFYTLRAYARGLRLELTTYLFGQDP

As to `CC(C)=CCN1CC[C@]2(C)c3cc(O)ccc3C[C@H]1[C@H]2C` [(+)-PENTAZOCINE], in test [1], the affinity corresponds to a Ki of 327 nM.
The same measure, in the same setting: under `O=C(CCCN1CCC(O)(c2ccc(Cl)cc2)CC1)c1ccc(F)cc1` [HALOPERIDOL] stands 235 nM.
As to `O=c1oc2ccccc2n1CC1CCN(Cc2ccc(-c3ccccc3)cc2)CC1`, the Ratio Ki in the test filed under Rattus norvegicus is more than 25. For the same molecule, the Ki in test [2] is 394 nM; in test [1], more than 10000 nM.
On the same counts, the results for `O=c1oc2ccccc2n1CC1CCN(Cc2ccc(F)cc2)CC1` are 44, 3.9 nM and 170 nM.
The corresponding values for `Cc1ccc(CN2CCC(Cn3c(=O)oc4ccccc43)CC2)c(C)c1` are 6, 30 nM and 187 nM.
As to `Cc1ccccc1NC(=N)Nc1ccccc1C` [DITOLYLGUANIDINE], the inhibitory constant (Ki) in test [1] was 130 nM.
Same read-out and setting: under `O=c1oc2ccccc2n1CC1CCN(Cc2ccccc2Cl)CC1` stands 299 nM.
With `Cc1ccc(CN2CCC(Cn3c(=O)oc4ccccc43)CC2)cc1`, the Ratio Ki in the test listed under Rattus norvegicus was 40. The Ki in test [2] turned out to be 2.9 nM; in test [1], 116 nM.
For `CN(CCCc1cn(-c2ccc(F)cc2)c2ccccc12)Cc1ccccc1`, in the test listed under Rattus norvegicus, the Ratio Ki worked out at 22. This molecule also returned an inhibition constant Ki in test [1] of 5.9 nM.
Consider `Cc1ccc(CN(C)CCCCc2cn(-c3ccc(F)cc3)c3ccccc23)c(C)c1`, for which the Ratio Ki in the test filed under Rattus norvegicus stood at 0.05. The affinity in test [1], expressed as Ki, was 5.9 nM.
In the case of `Cc1cc(C)c(CN2CCC(Cn3c(=O)oc4ccccc43)CC2)c(C)c1`, the Ratio Ki in the test filed under Rattus norvegicus is 0.5. Further, the inhibition constant Ki in test [2] was 6230 nM; in test [1] it was 2880 nM.
The corresponding values for `O=c1oc2ccccc2n1CC1CCN(Cc2ccccc2F)CC1` are 9, 23 nM and 213 nM.
`O=c1oc2ccccc2n1CC1CCN(Cc2cccc3ccccc23)CC1`: the Ki in test [1] came to 1290 nM.
In the case of `Cc1ccccc1CN1CCC(Cn2c(=O)oc3ccccc32)CC1`, the Ratio Ki in the test listed under Rattus norvegicus was determined as 10. For the same molecule, the results for the inhibitory constant (Ki) in test [2] and in test [1] were 33 nM and 338 nM, respectively.
Take `O=c1oc2ccccc2n1CC1CCN(Cc2ccc(Cl)cc2)CC1`: in test [1], the Ki came out at 427 nM.
The same measure, in the same setting: the value for `O=c1oc2ccccc2n1CC1CCN(Cc2ccccc2)CC1` was 246 nM.
As to `O=c1oc2ccccc2n1CC1CCN(Cc2ccc(Cl)cc2Cl)CC1`, in the test filed under Rattus norvegicus, the Ratio Ki amounted to 1.5. Besides, the Ki in test [2] worked out at 258 nM; in test [1], 382 nM.
On to `CCC(=O)c1ccc2c(c1)oc(=O)n2CCCN1CCCCC1`, for which, in the test filed under Rattus norvegicus, the Ratio Ki turned out to be 58. Also, the Ki in test [1] worked out at 8.5 nM.

In general, Ki refers to a dissociation constant, usually derived from enzyme kinetics or from competition with a known ligand.
